The text below walks through data of ChEMBL document CHEMBL1649170, “Functional characterization of the sigmaB-dependent yabJ-spoVG operon in Staphylococcus aureus: role in methicillin and glycopeptide resistance” (2009).

A word on the MIC: it is the lowest concentration found to suppress growth.

Converted amounts (≈) assume the structure as drawn. A value given as a limit tells only on which side of the number the result lay.

Assay type in all cases: functional
Assay [1] concerns Staphylococcus aureus. Nature of the assay: Antimicrobial activity against erythromycin-resistant, tetracycline-sensitive and yabJ-spoVG operon deficient Staphylococcus aureus COL mutant by broth microdilution method.
For assay [2], the system named is Staphylococcus aureus. Nature of the assay: Antimicrobial activity against erythromycin-resistant, tetracycline-sensitive and rsbUVW-sigB operon deficient Staphylococcus aureus COL mutant by broth microdilution method.
Assay [3] has as its system Staphylococcus aureus. Description: Antimicrobial activity against erythromycin-, tetracycline resistant and yabJ-spoVG operon deficient Staphylococcus aureus COL by broth microdilution method. A general note: In broth dilution the organism is exposed to a series of concentrations in liquid medium.
The test system of assay [4] is Staphylococcus aureus. Description: Antimicrobial activity against erythromycin-resistant and rsbUVW-sigB operon deficient Staphylococcus aureus COL by broth microdilution method.
The subject of assay [5] is Staphylococcus aureus. Description: Antimicrobial activity against methicillin- and tetracycline resistant Staphylococcus aureus COL by broth microdilution method.
Assay [6] relates to Staphylococcus aureus. Nature of the assay: Antimicrobial activity against methicillin-resistant and tetracycline-sensitive Staphylococcus aureus COL mutant by broth microdilution method.

As for `Cc1onc(-c2ccccc2)c1C(=O)N[C@@H]1C(=O)N2[C@@H]1SC(C)(C)[C@@H]2C(=O)O` [OXACILLIN], the MIC against Staphylococcus aureus [1] was above 256 µg/mL; against Staphylococcus aureus [2], above 256 µg/mL; in the assay with Staphylococcus aureus [3] it was 128 µg/mL (≈ 319 µM); in the assay with Staphylococcus aureus [4], 256 µg/mL (≈ 638 µM); against Staphylococcus aureus [5] it was above 256 µg/mL; in the assay with Staphylococcus aureus [6], above 256 µg/mL.
